Data on six compounds can be found in publication PMC8156053, “Synthesis, Characterization, and In Vitro Insulin-Mimetic Activity Evaluation of Valine Schiff Base Coordination Compounds of Oxidovanadium(V)” (Biomedicines, 2021).

Series [1] has as its system HepG2 cells. Briefly: Cytotoxicity, XTT cell viability assay. In kind it is cell-based, human. As to conditions: 1 × 10^−5 M, 24 h, compared to DMSO treated cells. A general note: Tetrazolium assays rely on reduction of a dye to a coloured formazan, in cell work by metabolically active cells.
Procedure: HepG2 cell line was purchased from American Type Culture Collection. The cells were grown in Dulbecco’s Modified Eagle’s Medium (DMEM) with 4.5‰ glucose, supplemented with 10% (v/v) fetal bovine serum, 100 units/mL penicillin, and 100 µg/mL streptomycin (complete medium). HepG2 cells were maintained at 37 °C in a 5% carbon dioxide incubator and were periodically sub-cultivated.
To determine the cytotoxic concentration of the synthesized oxidovanadium(V) complexes and V^IVOSO4•3H2O, HepG2 cells were incubated with increasing molar concentrations (1 × 10^−5 ÷ 3 × 10^−4 M) of compounds.
HepG2 cells (1.5 × 10^4 cells/mL) were seeded in complete medium on a 96-well cell culture plate and were incubated at 37 b0C, as previously described. […] Control cells were represented by cells exposed to free-complete medium and medium supplemented with 0.15% DMSO. The cytotoxicity of tested compounds on the HepG2 cell line was assessed by the 2, 3-bis-(2-methoxy-4-nitro-5-sulfophenyl)-2H-tetrazolium-5-carboxanilide) (XTT) cell viability assay. The method is based on the reduction of XTT, in the presence of phenazine methosulfate, to a water-soluble orange formazan derivative. The absorbance of the sample, due to the intensity of the orange color, which is proportional to the number of viable cells, was recorded at 450 nm using the Tecan Infinite M200Pro spectrophotometer.
The nature of series [2]: Solution stability over time in PBS by UV-Vis spectrophotometry. In kind it is physicochemical. To be noted: for decrease in the intensity of λmax: 2 × 10^−4 M in PBS pH 7.4, 37 °C; for stability in PBS: physiological pH (7.4), 37 °C. The method, then:
Electronic absorption spectra for the 2 × 10^−4 M solution of the four oxidovanadium(V) complexes in PBS at pH 7.4 were recorded outright on the prepared solutions (designated as T 0 h in the histograms), after the preparation at 1 h (T 1 h), 3 h (T 3 h), 6 h (T 6 h), 9 h (T 9 h), and 24 h (T 24 h), respectively. The prepared solutions were incubated at 37 °C, and the readings were performed over the entire 500 ÷ 230 nm range using a microplate reader spectrophotometer TECAN Infinite M200Pro and a 96-well UV micro test plate. The data were expressed as the average ± SD of three independent measurements.

Series [3] concerns the target T1, bovine serum albumin (BSA) (Bos taurus, UniProt P02769).
T1 construct: α-Amylase from porcine pancreas, bovine serum albumin (BSA); purchased SIGMA-Aldrich (Merck KGaA, Darmstadt, Germany)
In words: Fluorescence quenching of serum albumin (Stern–Volmer). To be noted: for Stern–Volmer constant KSV: BSA 2 × 10^−6 M, PBS pH 7.4, emission 347 nm; for decrease of BSA fluorescence intensity: highest tested concentration (2.5 × 10^−5 M), 2 × 10^−6 M BSA, PBS pH 7.4, vs free BSA and BSA with DMSO; for collision quenching constant Kq (Kq = Ksv/τ0): τ0 = 10^−8 s. In kind it is binding. The method, then: The capacity of the oxidovanadium(V) compounds to bind to bovine serum albumin (BSA) was monitored by fluorescence quenching assay. A solution of 2 × 10^−6 M BSA in PBS, pH 7.4, was incubated for 2 h at 37 b0C with each vanadium-based compound or V^IVOSO4•3H2O at increasing molar concentrations (1 × 10^−6 ÷ 2.5 × 10^−5 M) or with 0.025% DMSO (negative control). The samples were excited at 295 nm and the emission spectra of all BSA solutions were recorded in the 300 ÷ 450 nm range using a JASCO FP-750 spectrofluorometer. The final spectrum was the average of three recordings measured at a scanning speed of 250 nm/minute, with an excitation and emission bandwidth of 5 nm. […] In addition, by applying the Stern–Volmer equation [23], the mechanism by which the complexes bind to BSA was investigated as it is described in the Supplementary material.
The Stern–Volmer e quation
The Stern–Vol mer equation [1] is:
I0/I= 1+ Kqτ0[Q] = 1 + Ksv[Q], where: I0 = the fluor escence intensities of fr ee BS A solution at 347 nm, I = the fluorescence intensities of BS A solution at 347 nm in the presence of vanadium […]
[Q] = the concentration of vanadium co mplexes, τ0 = the fluorescence l ifetime of the biopolymer (10-8 s), Kq = the coll isi on quenching constant;
Ksv = the Stern-Volmer constant.
Stern–Vol mer plots of the B SA fluorescence quenching in t he prese nce of each compou nd are represented in Fig. S4, together with the ir linear best fit in which y = I0/I, x = [Q], a = slope of the li ne, […]
The fluorescence intensitie s are the average of three recordings measured at a scanning speed of 250 nm/min, with an excitation and emissio n bandwidth of 5 nm.

Series [4] has as its target T2, α-Amylase from porcine pancreas (Sus scrofa, UniProt P00690).
T2 construct: α-Amylase from porcine pancreas, bovine serum albumin (BSA); purchased SIGMA-Aldrich (Merck KGaA, Darmstadt, Germany); host or cells: porcine pancreas
T2 sequence (P00690 16-511): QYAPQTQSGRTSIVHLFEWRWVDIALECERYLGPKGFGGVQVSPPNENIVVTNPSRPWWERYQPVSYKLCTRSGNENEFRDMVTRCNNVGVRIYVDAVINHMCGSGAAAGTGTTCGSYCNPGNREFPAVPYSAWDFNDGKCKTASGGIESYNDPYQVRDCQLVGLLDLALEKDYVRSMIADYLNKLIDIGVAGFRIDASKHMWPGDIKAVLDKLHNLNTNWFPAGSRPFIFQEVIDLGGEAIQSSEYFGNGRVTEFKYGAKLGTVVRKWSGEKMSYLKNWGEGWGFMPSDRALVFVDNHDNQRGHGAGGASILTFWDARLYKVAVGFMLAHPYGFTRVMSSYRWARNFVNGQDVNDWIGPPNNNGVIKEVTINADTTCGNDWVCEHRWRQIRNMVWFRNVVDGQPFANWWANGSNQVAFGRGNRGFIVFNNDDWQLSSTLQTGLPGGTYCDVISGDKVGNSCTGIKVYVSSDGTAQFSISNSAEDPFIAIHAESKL
Briefly: Inhibition of the α-amylase activity (DNS/starch). In kind it is biochemical. To be noted: 1.8 × 10^−2 and 2.0 × 10^−2 M, compared to DMSO. Here is the method:
The capacity of the obtained complexes to inhibit pancreatic α-amylase activity in vitro was analyzed using a slightly modified procedure of the one described by Apostolidis and Lee. Thus, 100 µL solution of complexes (1.8 ÷ 2.5 × 10^−2 M), 2.5 × 10^−2 M V^IVOSO4•3H2O, 2.5 × 10^−2 M acarbose (positive control) and 12.5% DMSO (negative control) in reaction buffer (2 × 10^−2 M sodium phosphate, pH 6.9 with 6 × 10^−3 M sodium chloride) were pre-exposed to 100 µL of 20 units/mL α-amylase in reaction buffer for 10 min at room temperature. Then, 100 µL of 1% starch solution in reaction buffer were added and the samples were incubated at room temperature for 10 min. The reaction was stopped with 200 µL of 3, 5-dinitrosalicylic acid (DNS). The samples were heated at 90 ÷ 95 °C for 10 min and then left to cool down at room temperature. The reaction mixture was further diluted with 4 mL of distilled water. As a control for the inhibitory effect of acarbose, a sample containing starch and enzyme was used. The yellow/orange color intensity was measured using the microplate reader TECAN Infinite M200Pro at 540 nm. The experiment was performed in triplicate. The blank (sample without starch and enzyme) absorbance was subtracted from the absorbance of all samples and the activity of α-amylase was expressed as % of DMSO (negative control).

Series [5] deals with insulin receptor (INS R). In words: Quantification of phosphorylated insulin receptor by immunoblotting in HepG2 cells. To be noted: 10^−7 M insulin. In kind it is cell-based, human. The method, then: To investigate the effect of oxidovanadium(V) complexes on insulin receptor (INS R) phosphorylation, HepG2 cells (1.0 × 10^5 cells/mL) were treated with 2.5 × 10^−5 M oxidovanadium(V) compounds, V^IVOSO4•3H2O, and 10^−7 M insulin (positive control) for 3 and 24 h, respectively. As negative controls, cells exposed to free-complete medium (negative control for treatment with V^IVOSO4•3H2O and insulin) and cells exposed to 0.0125% DMSO (negative control for treatment with complexes) were used.
After cell lysis, 50 µg of total protein was denatured by adding 1/5th volume of Laemmli’s buffer 6× (15% SDS, 0.01% bromophenol blue, 74% glycerol, 7.5 × 10^−2 M Tris, pH 6.8, 1/8th volume of 2-mercaptoethanol) followed by heating at 95 °C for 5 min. […]
The separated proteins were transferred (using a Trans-Blot Semi-Dry transfer cell, Bio-Rad) to a nitrocellulose membrane (0.45 µm, Bio-Rad), blocked with 1% BSA for 1 hour, and incubated overnight with the primary antibody: Mouse anti-insulin receptor-β chain (INS R-β) (1:500, Santa Cruz Biotechnology cat. No. sc-57342), rabbit anti-phosphorylated INS R-Y1162/3 (pINS R, 1:400, R&D Systems, Minneapolis, MN, USA cat. No. AF2507) and mouse anti-β-actin (1/2000, Bio-Rad cat. no. MCA5775GA). […] The data were expressed as the mean ± SD of two individual experiments performed in duplicate.
(In general: A western blot detects proteins with antibodies after separation by electrophoresis.)

The mark [6] stands for this setting: ratio of BSA quenching constants.

“And” between values parts separate entries of the source, which are not always exact repeats. Equal values may be shown once.

T1 sequence (P02769 25-607): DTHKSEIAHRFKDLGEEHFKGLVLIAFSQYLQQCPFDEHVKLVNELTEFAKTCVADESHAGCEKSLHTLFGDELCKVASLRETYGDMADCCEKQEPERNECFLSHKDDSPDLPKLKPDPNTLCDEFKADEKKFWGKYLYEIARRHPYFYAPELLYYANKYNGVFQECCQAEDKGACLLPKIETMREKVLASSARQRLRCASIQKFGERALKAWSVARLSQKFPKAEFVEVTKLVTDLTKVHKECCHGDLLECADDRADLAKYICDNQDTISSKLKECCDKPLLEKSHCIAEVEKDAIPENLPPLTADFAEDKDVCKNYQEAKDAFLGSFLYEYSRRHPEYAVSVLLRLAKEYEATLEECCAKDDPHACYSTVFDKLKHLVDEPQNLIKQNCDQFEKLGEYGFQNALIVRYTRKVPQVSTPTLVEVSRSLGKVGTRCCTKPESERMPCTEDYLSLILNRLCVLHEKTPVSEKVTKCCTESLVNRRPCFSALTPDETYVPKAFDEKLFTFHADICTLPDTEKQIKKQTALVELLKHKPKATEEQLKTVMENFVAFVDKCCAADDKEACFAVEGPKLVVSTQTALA

Turning to `N.N.[Cl][Pt][Cl]` [cisplatin], the “reduction of HepG2 viability” value in series [1] amounted to 44%.

`CC(C)[C@H](N=Cc1ccccc1[O-])C(=O)[O-].CC(C)[C@H](N=Cc1ccccc1[O-])C(=O)[O-].O.[O]=[V+2][O][V+2]=[O]` [1b, [{V^VO(S-salval)(H2O)}(μ2-O){V^VO(S-salval)}]]: the “decrease in the intensity of λmax” value is given as “about 10%” in series [2] (1 h vs T 0 h); “about 25%” in series [2] (3 h vs T 0 h); “about 40%” in series [2] (6 h vs T 0 h); “about 50%” in series [2] (9 h vs T 0 h); “about 70%” in series [2] (24 h vs T 0 h). Moreover, the “stability in PBS” value in series [2] is “stable in PBS at physiological pH and temperature for up to three hours”. For the same compound, the “Stern–Volmer constant KSV” value in series [3] was found to be 60100 M⁻¹. Also, in series [3], the “decrease of BSA fluorescence intensity” value is listed as “about 60%”. The “collision quenching constant Kq (Kq = Ksv/τ0)” value (from here on “collision quenching constant Kq”) in series [3] is 6.01e+12 M⁻¹ s⁻¹. Further, in series [4], the “inhibitory effect on α-amylase activity” value is “more than 18%”.

As for “insulin: human recombinant insulin, positive control for INS R phosphorylation”, in series [5] (3 h, HepG2, compared to cells exposed to free-complete medium), the “increase of INS R phosphorylation” value is on record as “about 80%”. Further, the “INS R phosphorylation” value in series [5] (24 h, HepG2, compared to control cells) was “reduced and insignificant”.

For `CC(C)[C@H]1N=Cc2ccccc2[O][V](=[O])([O][V]2(=[O])[O]C(=O)[C@@H](C(C)C)N=Cc3ccccc3[O]2)[O]C1=O.O` (some centres unmarked) [1a, [{V^VO(R-salval)(H2O)}(μ2-O){V^VO(R-salval)}]], the “decrease in the intensity of λmax” value is on record as “about 10%” in series [2] (1 h vs T 0 h); “about 25%” in series [2] (3 h vs T 0 h); “about 40%” in series [2] (6 h vs T 0 h); “about 50%” in series [2] (9 h vs T 0 h); “about 70%” in series [2] (24 h vs T 0 h). The “stability in PBS” value in series [2] was “stable in PBS at physiological pH and temperature for up to three hours”. In series [3], the “Stern–Volmer constant KSV” value amounted to 80700 M⁻¹. The “decrease of BSA fluorescence intensity” value in series [3] is recorded as “about 60%”. The “Kq(1a)/Kq(1b)” value in series [3] (setting [6]) was 1.34. Besides, the “collision quenching constant Kq” value in series [3] came out at 8.07e+12 M⁻¹ s⁻¹. Further, in series [4], the “inhibitory effect on α-amylase activity” value is recorded as “more than 18%”.

Consider `CO.CO.COc1cccc(C=N[C@H](C(=O)[O-])C(C)C)c1[O-].COc1cccc(C=N[C@H](C(=O)[O-])C(C)C)c1[O-].[O]=[V+2][O][V+2]=[O]` [2b, [{V^VO(S-vanval)(CH3OH)}2(μ2-O)]], for which the “decrease in the intensity of λmax” value is on record as “less than 10%” in series [2] (1 h vs T 0 h); “less than 20%” in series [2] (3 h vs T 0 h); about 20% in series [2] (6 h vs T 0 h); about 30% in series [2] (9 h vs T 0 h); about 30% in series [2] (24 h vs T 0 h). In addition, the “stability in PBS” value in series [2] is “stable in PBS at physiological pH and temperature for up to three hours”. In series [3], the “Stern–Volmer constant KSV” value stood at 248900 M⁻¹. Also, in series [3], the “decrease of BSA fluorescence intensity” value is reported as about 80%. The “Kq(2b)/Kq(1b)” value in series [3] (setting [6]) was 4 and 4.14. The “collision quenching constant Kq” value in series [3] came out at 2.489e+13 M⁻¹ s⁻¹. Moreover, the “increase of α-amylase enzyme activity” value in series [4] worked out at 35%.

Take `CO.CO.COc1cccc2c1[O][V](=[O])([O][V]1(=[O])[O]C(=O)[C@@H](C(C)C)N=Cc3cccc(OC)c3[O]1)[O]C(=O)[C@@H](C(C)C)N=C2` (some centres unmarked) [2a, [{V^VO(R-vanval)(CH3OH)}2(μ2-O)]]: the “decrease in the intensity of λmax” value in series [2] (1 h vs T 0 h) is “less than 10%”; in series [2] (3 h vs T 0 h) it was “less than 20%”; in series [2] (6 h vs T 0 h), about 20%; in series [2] (9 h vs T 0 h), about 30%; in series [2] (24 h vs T 0 h), about 30%. Moreover, the “stability in PBS” value in series [2] was “stable in PBS at physiological pH and temperature for up to three hours”. Besides, in series [3], the “Stern–Volmer constant KSV” value was 171800 M⁻¹. In addition, in series [3], the “decrease of BSA fluorescence intensity” value is reported as about 80%. Further, the “Kq(2a)/Kq(1a)” value in series [3] (setting [6]) was 2 and 2.12. Further, in series [3] (setting [6]), the “Kq(2a)/Kq(2b)” value is given as 0.69. In series [3], the “collision quenching constant Kq” value is 1.718e+13 M⁻¹ s⁻¹. Moreover, the “increase of α-amylase enzyme activity” value in series [4] was 35%.
